Assay [1] addresses Glycogen synthase kinase-3 alpha (Homo sapiens, UniProt P49840). The experiment in a line: TR-FRET Assay. An outline of the steps:
(§1)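 30 min preinc w/ cpd in assay buffer → kinase rxn → EDTA quench → add detection mix (40 nM SA-d2, 2 nM Tb-pSer641 Ab) → TR-FRET read.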
Background: TR-FRET usually uses a lanthanide donor and a delayed reading to cut background.

In assay [2] the target is Glycogen synthase kinase-3 beta (Homo sapiens, UniProt P49841). The experiment in a line: TR-FRET Assay. An outline of the steps: as §1

Where “and” joins values, the source holds several entries; their conditions need not be identical. Identical values can stand only once.

Glycogen synthase kinase-3 beta, sequence (P49841 whole entry): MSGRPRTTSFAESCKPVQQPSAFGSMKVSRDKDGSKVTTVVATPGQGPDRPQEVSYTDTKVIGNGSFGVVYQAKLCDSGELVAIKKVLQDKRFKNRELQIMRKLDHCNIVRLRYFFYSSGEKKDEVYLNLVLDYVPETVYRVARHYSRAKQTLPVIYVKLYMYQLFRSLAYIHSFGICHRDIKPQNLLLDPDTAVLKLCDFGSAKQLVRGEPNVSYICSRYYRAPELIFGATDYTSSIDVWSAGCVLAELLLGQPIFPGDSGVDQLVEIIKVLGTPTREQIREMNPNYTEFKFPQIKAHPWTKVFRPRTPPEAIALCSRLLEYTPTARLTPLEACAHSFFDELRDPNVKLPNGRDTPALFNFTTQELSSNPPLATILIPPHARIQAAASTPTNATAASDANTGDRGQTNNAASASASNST
Glycogen synthase kinase-3 alpha, sequence (P49840 whole entry): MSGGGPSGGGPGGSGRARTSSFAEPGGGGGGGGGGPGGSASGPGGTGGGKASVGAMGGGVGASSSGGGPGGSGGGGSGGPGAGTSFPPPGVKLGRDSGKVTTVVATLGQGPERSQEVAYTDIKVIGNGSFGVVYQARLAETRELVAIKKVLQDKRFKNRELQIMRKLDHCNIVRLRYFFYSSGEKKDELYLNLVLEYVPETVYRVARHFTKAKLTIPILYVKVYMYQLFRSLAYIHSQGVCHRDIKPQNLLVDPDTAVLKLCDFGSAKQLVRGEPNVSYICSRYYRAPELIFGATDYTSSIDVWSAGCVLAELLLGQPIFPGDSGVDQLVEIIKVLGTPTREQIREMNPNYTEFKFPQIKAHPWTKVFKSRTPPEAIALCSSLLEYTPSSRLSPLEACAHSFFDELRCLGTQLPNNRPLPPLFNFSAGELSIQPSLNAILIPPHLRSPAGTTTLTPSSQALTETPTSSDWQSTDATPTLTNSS

Regarding `CC1(C)CC(=O)C2=C(C1)NC1=C(CN=N1)[C@@]21CO[C@@H](C2CC2)C1` [US20250313563, Compound 913442], the IC50 in assay [1] and in assay [2] was 0.1 to 1 µM in each case.
As to `CCC1(c2cccc(-c3cc(OC)ncn3)c2)C2=CN=NC2NC2=C1C(=O)CC(C)(C)C2` (configuration not stated) [US20250313563, Compound 948093], the IC50 in assay [1] is under 0.1 µM; in assay [2], 0.1 to 1 µM.
For the compound `CC[C@]1(c2cccc(-c3cnn(C)c3)c2)C2=CN=NC2NC2=C1C(=O)CC(C)(C)[C@H]2F` (some centres not stated) [US20250313563, Compound 957505], the IC50 was < 0.1 µM and 1 to 5 µM in assay [1]; 1 to 5 µM and > 5 µM in assay [2].
On to `CC[C@@]1(c2cccc(-c3c(F)cncc3OC)c2)C2=CN=NC2NC2=C1C(=O)CC(C)(C)[C@H]2F` (some centres not stated) [US20250313563, Compound 948547], for which the 50% inhibitory concentration (IC50) in assay [1] fell in the range of 0.1 to 1 µM; in assay [2], 1 to 5 µM.
For the compound `CC[C@]1(c2cccc(C3=C4CC=CC(Cl)=C4N=CC3)c2)C2=CN=NC2NC2=C1C(=O)NC(C)(C)C2` (some centres not stated) [US20250313563, Compound 948650], the IC50 in assay [1] and in assay [2] was over 5 µM each time.
For the compound `CC[C@@]1(c2cccc(-c3c(F)cncc3OC)c2)C2=CN=NC2NC2=C1C(=O)CC(C)(C)C2` (some centres not stated) [US20250313563, Compound 947512], the IC50 in assay [1] is under 0.1 µM; in assay [2], 0.1 to 1 µM.
For `CCC1(c2ccccc2)C2=C(N=NC2)NC2=C1C(=O)N(C)CC2` (configuration not stated) [US20250313563, Compound 883867], the IC50 in assay [1] and in assay [2] was over 5 µM in each case.
`CC[C@]1(c2cccc(-c3ccncc3OC3CC3)c2)C2=CN=NC2NC2=C1C(=O)NC(C)(C)C2` (some centres not stated) [US20250313563, Compound 948643]: the IC50 in assay [1] and in assay [2] was over 5 µM each time.
As to `Cc1ccc(CC(=O)N2CC3(C2)CC2(CO3)C3=C(N=NC3)NC3=C2C(=O)CC(C)(C)C3)cc1` (configuration not stated) [US20250313563, Compound 947281], the IC50 in assay [1] is < 0.1 µM and 0.1 to 1 µM; in assay [2], < 0.1 µM and 0.1 to 1 µM.
In the case of `CCC1(c2cccc(C(C)C)c2)C2=C(CC(C)(C)NC2=O)NC2N=NC(C)=C21` (configuration not stated) [US20250313563, Compound 949173], the concentration for half-maximal inhibition (IC50) in assay [1] and in assay [2] was under 0.1 µM each time.
For `CC(C)C1CC(C(=O)N2CC3(C2)CC2(CO3)C3=C(N=NC3)NC3=C2C(=O)CC(C)(C)C3)C1` (configuration not stated) [US20250313563, Compound 947273], the IC50 in assay [1] and in assay [2] was under 0.1 µM in each case.
As for `CC[C@@]1(c2cccc(-c3ncnn3C)c2)C2=CN=NC2NC2=C1C(=O)CC(C)(C)C2` (some centres not stated) [US20250313563, Compound 945482], the IC50 in assay [1] is 1 to 5 µM and > 5 µM; in assay [2], over 5 µM.
On to `CCC1(c2cccc(-c3ccn(C)n3)c2)C2=C(CC(C)(C)CC2=O)NC2N=NC(C)=C21` (configuration not stated) [US20250313563, Compound 883999], for which the IC50 in assay [1] and in assay [2] was under 0.1 µM throughout.
Take `CC[C@@]1(c2cccc(-c3c(F)cncc3OC)c2)C2=C(N=NC2)NC2=C1C(=O)C(C)(C)C2` [US20250313563, Compound 952562]: the half-maximal inhibitory concentration (IC50) in assay [1] is 1 to 5 µM; in assay [2] it was over 5 µM.
The matching figures for `CC1(C)CC(=O)C2=C(C1)NC1=C(CN=N1)[C@@]21CCOC(C)(C)C1` [US20250313563, Compound 924299]: 0.1 to 1 µM and 0.1 to 1 µM.
The matching figures for `CCC1(c2cccc(N(C)C(O)C3CC3)c2)C2=CN=NC2NC2=C1C(=O)CC(C)(C)C2` (configuration not stated) [US20250313563, Compound 912067]: under 0.1 µM and under 0.1 µM.
Consider `CCCn1nccc1-c1cccc([C@@]2(CC)C3=CN=NC3NC3=C2C(=O)CC(C)(C)C3)c1` (some centres not stated) [US20250313563, Compound 946094], for which the figures for the IC50 in assay [1] and in assay [2] were 0.1 to 1 µM and 1 to 5 µM, respectively.
Take `CC[C@@]1(c2cccc(C(F)(F)F)c2)C2=C(N=NC2)NC2=C1C(=O)NC2(C)C` [US20250313563, Compound 913452]: the IC50 in assay [1] and in assay [2] was over 5 µM each time.
For the compound `CC[C@]1(c2cccc(Cl)c2)C2=C(CC(C)(C)CC2=O)NC2N=NC(C)=C21` (some centres not stated) [US20250313563, Compound 790612], the IC50 in assay [1] and in assay [2] was under 0.1 µM in each case.
Take `CC[C@@]1(c2cccc(-c3cn(C)nc3C)c2)C2=C(CC(C)(C)NC2=O)NC2N=NC(C)=C21` (some centres not stated) [US20250313563, Compound 946001]: the IC50 in assay [1] is under 0.1 µM; in assay [2], < 0.1 µM and 0.1 to 1 µM.
Take `CCC1(c2cccc(C(F)(F)F)c2)C2=CN=NC2NC2=C1C(=O)N(C(C)C)CC2` (configuration not stated) [US20250313563, Compound 825755]: the concentration for half-maximal inhibition (IC50) is under 0.1 µM in assay [1] and 0.1 to 1 µM in assay [2].
The matching figures for `COc1cccc(S(=O)(=O)N2CC[C@]3(C2)C2=C(N=NC2)NC2=C3C(=O)CC(C)(C)C2)c1` [US20250313563, Compound 951790]: under 0.1 µM and under 0.1 µM.
The matching figures for `CCC1(c2cccc(CN(C)C(C)=O)c2)C2=CN=NC2NC2=C1C(=O)CC(C)(C)C2` (configuration not stated) [US20250313563, Compound 865194]: 0.1 to 1 µM and 1 to 5 µM.
With `CCC1(c2cccc(-c3ccnc(C)c3C)c2)C2=C(CC(C)(C)CC2=O)NC2N=NC(C(F)(F)F)=C21` (configuration not stated) [US20250313563, Compound 945529], the half-inhibitory concentration (IC50) is under 0.1 µM in assay [1]; < 0.1 µM and 0.1 to 1 µM in assay [2].
Turning to `CC[C@]1(c2cccc(-c3cnn(-c4cccnc4)c3)c2)C2=CN=NC2NC2=C1C(=O)NC(C)(C)C2` (some centres not stated) [US20250313563, Compound 949515], the IC50 in assay [1] and in assay [2] was over 5 µM throughout.
Consider `CC[C@@]1(c2cccc(-c3ccnc4ccc(OC)cc34)c2)C2=CN=NC2NC2=C1C(=O)NC(C)(C)C2` (some centres not stated) [US20250313563, Compound 948527], for which the 50% inhibitory concentration (IC50) in assay [1] and in assay [2] was under 0.1 µM throughout.
In the case of `CC[C@@]1(c2cccc(-c3ccncc3C)c2)C2=CN=NC2NC2=C1C(=O)N[C@@]1(CCOC1)C2` (some centres not stated) [US20250313563, Compound 948644], the 50% inhibitory concentration (IC50) in assay [1] and in assay [2] was under 0.1 µM each time.
`CC[C@]1(c2cccc(-c3ccnnc3)c2)C2=CN=NC2NC2=C1C(=O)CC(C)(C)C2` (some centres not stated) [US20250313563, Compound 929443]: the IC50 in assay [1] and in assay [2] was over 5 µM throughout.
Regarding `CC[C@@]1(c2cccc(-c3ccnc(C)c3)c2)C2=CN=NC2NC2=C1C(=O)N[C@@]1(CCOC1)C2` (some centres not stated) [US20250313563, Compound 947406], the half-inhibitory concentration (IC50) in assay [1] was < 0.1 µM and 0.1 to 1 µM; in assay [2], 0.1 to 1 µM and > 5 µM.
As for `CCC1(c2cccc(C(C)C)c2)C2=C(CC(C)(C)NC2=O)NC2N=NC(C(F)(F)F)=C21` (configuration not stated) [US20250313563, Compound 949747], the concentration for half-maximal inhibition (IC50) in assay [1] and in assay [2] was under 0.1 µM in each case.
As to `CCC1(c2cccc(N3CCCCCC3)c2)C2=CN=NC2NC2=C1C(=O)CC(C)(C)C2` (configuration not stated) [US20250313563, Compound 885088], the 50% inhibitory concentration (IC50) in assay [1] and in assay [2] was 0.1 to 1 µM each time.
With `CCc1cccc(N(C)c2cccc([C@]3(CC)C4=CN=NC4NC4=C3C(=O)CC(C)(C)C4)c2)n1` (some centres not stated) [US20250313563, Compound 945730], the results for the IC50 in assay [1] and in assay [2] were under 0.1 µM and 0.1 to 1 µM, respectively.
Turning to `CCC1(c2ccn(C)n2)C2=C(N=NC2)NC2=C1C(=O)CC(C)(C)C2` (configuration not stated) [US20250313563, Compound 790619], the IC50 in assay [1] is 1 to 5 µM; in assay [2], over 5 µM.
The matching figures for `CCC1(c2cccc(S(=O)(=O)C3CC3)c2)C2=C(CC(C)(C)NC2=O)NC2=C1C(C(F)(F)F)N=N2` (configuration not stated) [US20250313563, Compound 947859]: under 0.1 µM and under 0.1 µM.
Take `CC1(C)CC(=O)C2=C(C1)NC1=C(C(C3CC3)N=N1)C21CN(S(=O)(=O)CC2CC2)C1` (configuration not stated) [US20250313563, Compound 109152]: the IC50 in assay [1] and in assay [2] was 0.1 to 1 µM each time.
For `CC[C@@]1(c2cccc(Cc3ncccn3)c2)C2=CN=NC2NC2=C1C(=O)CC(C)(C)C2` (some centres not stated) [US20250313563, Compound 947499], the IC50 in assay [1] was 1 to 5 µM and > 5 µM; in assay [2], over 5 µM.
With `CC[C@]1(c2cccc([C@H](C)c3ncccn3)c2)C2=CN=NC2NC2=C1C(=O)CC(C)(C)C2` (some centres not stated) [US20250313563, Compound 948057], the IC50 in assay [1] lay within 0.1 to 1 µM; in assay [2], 1 to 5 µM.
The matching figures for `CC[C@]1(c2cccc(-c3cc[n+]([O-])c(C)c3)c2)C2=CN=NC2NC2=C1C(=O)CC(C)(C)C2` (some centres not stated) [US20250313563, Compound 946055]: 0.1 to 1 µM and 1 to 5 µM.
The matching figures for `CC[C@]1(c2cccc(-c3ccnc(C)c3Cl)c2)C2=CN=NC2NC2=C1C(=O)NC(C)(C)C2` (some centres not stated) [US20250313563, Compound 948369]: over 5 µM and over 5 µM.
As to `CCC1(c2cccc(C3CC4CCC(C3)O4)c2)C2=CN=NC2NC2=C1C(=O)CC(C)(C)C2` (configuration not stated) [US20250313563, Compound 889622], the IC50 in assay [1] and in assay [2] was 0.1 to 1 µM each time.
`CC[C@@]1(c2cccc(C(F)(F)F)c2)C2=CN=NC2NC2=C1C(=O)N[C@H](C(C)(C)C)C2` (some centres not stated) [US20250313563, Compound 945922]: the IC50 is under 0.1 µM in assay [1] and 0.1 to 1 µM in assay [2].
For `CC(=O)N1C[C@@]2(C[C@]3(CO2)C2=C(N=NC2)NC2=C3C(=O)CC(C)(C)C2)[C@@H]1C` [US20250313563, Compound 948440], the IC50 in assay [1] and in assay [2] was under 0.1 µM in each case.
As for `CCC1(c2cccc(-c3cnn(CCOC)c3)c2)C2=C(CC(C)(C)CC2=O)NC2N=NC(C)=C21` (configuration not stated) [US20250313563, Compound 883996], the IC50 in assay [1] is under 0.1 µM; in assay [2], 0.1 to 1 µM.
Consider `CCC1(c2cccc(-c3ccnc(C)c3)c2)C2=C(CC(C)(C)NC2=O)NC2N=NC(C)=C21` (configuration not stated) [US20250313563, Compound 947798], for which the IC50 is under 0.1 µM in assay [1] and 0.1 to 1 µM in assay [2].
The matching figures for `CC[C@@]1(c2cccc(-c3ccncc3F)c2)C2=C(CC(C)(C)CC2=O)NC2N=NC(C(F)(F)F)=C21` (some centres not stated) [US20250313563, Compound 947327]: under 0.1 µM and 0.1 to 1 µM.
As for `CC[C@@]1(c2cccc(-c3cc(C)nnc3C)c2)C2=CN=NC2NC2=C1C(=O)NC(C)(C)C2` (some centres not stated) [US20250313563, Compound 949331], the IC50 was < 0.1 µM and 0.1 to 1 µM in assay [1]; 0.1 to 1 µM and 1 to 5 µM in assay [2].

By IC50 is commonly meant the concentration that gives 50% inhibition. A lower IC50 goes with inhibition by little substance.

(Values after BindingDB's records for patent US20250313563 (The Broad Institute, 2025).)
